Reference: PubChem BioAssay (NCI)
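In this assay, cells in 96-well plates receive the compound at five concentrations for 48 hours. Endpoints are linearly interpolated between the surrounding concentrations. GI50 is the concentration that inhibits growth by half. The concentration for full growth arrest is given as TGI.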 Where a SMILES comes first, the peptide text is derived from it. [ ]: non-standard residue; d: D form. The star is where a group is joined. Phe(4-NO2) = N[CH](Cc1ccc([N+](=O)[O-])cc1)C(=O)O; Boc = CC(C)(C)OC(=O)*

How the values were obtained:
Assay in all cases: NCI tumour cell line growth inhibition, 48 h
[1] = test system: NCI-H226 lung
[2] = test system: ACHN renal
[3] = test system: M14 melanoma
[4] = test system: NCI-H460 lung
[5] = test system: DU-145 prostate
[6] = test system: SF-539 CNS
[7] = test system: HCT-15 colon
[8] = test system: RXF 393 renal
[9] = test system: KM12 colon
[10] = test system: NCI/ADR-RES ovarian

Cc1cc(C)nc(NS(=O)(=O)c2ccc(NNc3c4ccccc4nc4c(C(=O)Nc5ccc(S(=O)(=O)Nc6cc(C)on6)cc5)cccc34)cc2)n1
TGI [1]: 63.8 µM
TGI [2]: > 100 µM
TGI [3]: > 100 µM
TGI [4]: > 100 µM
TGI [5]: > 100 µM
TGI [6]: > 100 µM
TGI [7]: > 100 µM
TGI [8]: > 100 µM
TGI [9]: > 100 µM
TGI [10]: > 100 µM

O=C(Nc1ccc(-n2cc(-c3ccncc3)c(-c3ccc(O)c(Cl)c3)n2)cc1)c1ccc(Cl)c(C(F)(F)F)c1
GI50 [1]: > 50 µM
TGI [1]: > 50 µM
GI50 [2]: 1.8 µM
TGI [2]: 13.3 µM
GI50 [3]: 0.946 µM
TGI [3]: 2.08 µM
GI50 [4]: 1.94 µM
TGI [4]: > 50 µM
GI50 [5]: 3.35 µM
TGI [5]: > 50 µM
GI50 [6]: 0.96 µM
TGI [6]: 3.41 µM
GI50 [7]: 1.21 µM
TGI [7]: 4.39 µM
GI50 [8]: 0.717 µM
TGI [8]: 1.64 µM
GI50 [9]: 1.93 µM
TGI [9]: > 50 µM
GI50 [10]: 2.57 µM
TGI [10]: > 50 µM

COC(=O)c1c2c(cc3c1CC1(Cc4cc5c(c(C)c4C1)CCC5)C3)CCC2 (stereo not drawn)
TGI [2]: > 100 µM
TGI [3]: > 100 µM
TGI [4]: > 100 µM
TGI [5]: > 100 µM
TGI [6]: > 100 µM
TGI [7]: > 100 µM
TGI [8]: > 100 µM
TGI [10]: > 100 µM

CCOC(=O)CCC(NC(=O)C(Cc1ccc([N+](=O)[O-])cc1)NC(=O)OC(C)(C)C)C(=O)NC(CCC(=O)OCC)C(=O)OCC (stereo not drawn) (Boc-[Phe(4-NO2)]-Glu(OEt)-Glu(OEt)-OEt; configuration not given here)
TGI [1]: 35.9 µM
TGI [2]: 31.1 µM
TGI [3]: 35.9 µM
TGI [4]: 57.3 µM
TGI [7]: > 100 µM
TGI [8]: 30.2 µM
TGI [9]: 28.1 µM

Cc1nc(C)c(N2CCN(CN)CC2)c(=O)[nH]1
TGI [1]: > 100 µM
TGI [2]: > 100 µM
TGI [3]: > 100 µM
TGI [4]: > 100 µM
TGI [5]: > 100 µM
TGI [6]: > 100 µM
TGI [7]: > 100 µM
TGI [8]: > 100 µM
TGI [9]: > 100 µM
TGI [10]: > 100 µM

Oc1ccc2ccccc2c1OCc1nnc(CCCCCCCCc2nnc(COc3c(O)ccc4ccccc34)n2Nc2ccccc2)n1Nc1ccccc1
TGI [1]: > 91.1 µM
TGI [2]: > 100 µM
TGI [3]: 44.7 µM
TGI [4]: > 100 µM
TGI [5]: > 70.1 µM
TGI [6]: 26.7 µM
TGI [7]: 77.7 µM
TGI [8]: > 78 µM
TGI [9]: 33 µM
TGI [10]: 56.9 µM

CC(C)(C)c1cc(OCc2nnc3sc(Cc4ccccc4)nn23)c(Cl)cc1OCc1nnc2sc(Cc3ccccc3)nn12
TGI [1]: > 100 µM
TGI [2]: 68 µM
TGI [3]: 88 µM
TGI [4]: 42.5 µM
TGI [5]: > 100 µM
TGI [6]: > 100 µM
TGI [7]: > 100 µM
TGI [8]: 38.8 µM
TGI [9]: 57.2 µM
TGI [10]: > 100 µM

O=C1CCCCC/C1=C\c1cccc(F)c1
TGI [2]: > 100 µM
TGI [3]: > 100 µM
TGI [4]: > 100 µM
TGI [5]: > 100 µM
TGI [6]: > 100 µM
TGI [7]: > 100 µM
TGI [8]: > 100 µM
TGI [9]: > 100 µM
TGI [10]: > 100 µM

Cc1ccc(-n2nncc2[Si](C)(C)C)s1
TGI [1]: > 100 µM
TGI [2]: > 100 µM
TGI [3]: > 100 µM
TGI [4]: > 100 µM
TGI [5]: > 100 µM
TGI [6]: > 100 µM
TGI [7]: > 100 µM
TGI [10]: > 100 µM

CC(c1ccccc1)n1cncc1C(=O)NN1CCN(C)CC1 (stereo not drawn)
TGI [1]: > 10 µM
TGI [2]: > 10 µM
TGI [3]: > 10 µM
TGI [4]: > 10 µM
TGI [5]: > 10 µM
TGI [6]: > 10 µM
TGI [7]: > 10 µM
TGI [8]: > 10 µM
TGI [9]: > 10 µM
TGI [10]: > 10 µM

Cc1cc2c(=O)c3ccc(Cl)cc3[nH]c2c(C(N)=O)c1C
TGI [2]: > 100 µM
TGI [3]: > 100 µM
TGI [4]: > 100 µM
TGI [6]: > 100 µM
TGI [7]: > 100 µM
TGI [9]: > 100 µM
